Where a SMILES comes first, the peptide text is derived from it.
Legend:
L. crispatus and E. coli = test: Therapeutic Effect Protocol: L. crispatus / E. coli co-culture, ratio after 36 hours; format: cell-based, Lactobacillus crispatus; E. coli; conditions: for Therapeutic Efficacy Results (Lactobacillus/E. coli) 0.10%: nitrogen compound 0.10 wt/vol % with 1.0 wt/vol % α methyl-D glucoside (10:1); for Therapeutic Efficacy Results (Lactobacillus/E. coli) 0.10% / Therapeutic Efficacy Results (Lactobacillus/E. coli) 0.50% / Therapeutic Efficacy Results (Lactobacillus/E. coli) 1.00%: 36 hours anaerobic co-culture, 37° C.; for Therapeutic Efficacy Results (Lactobacillus/E. coli) 0.50%: nitrogen compound 0.50 wt/vol % with 1.0 wt/vol % α methyl-D glucoside (2:1); for Therapeutic Efficacy Results (Lactobacillus/E. coli) 1.00%: nitrogen compound 1.00 wt/vol % with 1.0 wt/vol % α methyl-D glucoside (1:1); for Therapeutic effect when ratio α methyl-D glucoside : nitrogen compound is at least about 2:1, but not at 1:1 / Therapeutic effect at ratio 2:1 and 10:1, but not at 1:1: with α methyl-D glucoside; for Therapeutic effect when ratio α methyl-D glucoside : nitrogen compound is at least about 2:1, but not at 1:1: ratio at least about 2:1, not 1:1; for Therapeutic effect at ratio 2:1 and 10:1, but not at 1:1: ratios 2:1 and 10:1, not 1:1
Protocol: As used herein the term “therapeutic effect” refers to the ability of the compositions and formulations of the present invention to stimulate the growth of Lactobacillus relative E. coli measured according to the Therapeutic Effect Protocol described below. Generally, therapeutic effect is expressed as a ratio of Lactobacillus to E. coli and is desirably greater than about 2, more preferably greater than about 20 and more desirably greater than about 100.
The data in Table 1 was tested according to the Therapeutic Effect Protocol as described further herein. The nitrogen compounds were tested for their therapeutic efficacy at three different concentrations when combined with α methyl-D glucoside (1% wt/vol %). The concentrations of the nitrogen containing compounds that were tested were 1% wt/vol %, 0.5% wt/vol %, and 0.1% wt/vol %.
Colonies of L. crispatus and E. coli were prepared as follows. A colony of L. crispatus was transferred to 7 ml de Man, Rogosa & Sharpe (MRS) broth and incubated anaerobically (using BD GasPak EZ anaerobe container system with indicator) at 37° C. without shaking for 18-20 hours. A colony of E. coli was transferred to 5 ml Tryptic Soy Broth (TSB) and incubated aerobically (shaking at 100 rpm) at 37° C. for 18-20 hours.
Colonies were then inoculated as follows. Bacterial cultures were gently vortexed and 1 mL of each culture was transferred to a corresponding 2.0 mL micro-centrifuge tube and then centrifuged for two minutes at 14,500 rpm. The cultural supernatant was removed and the cell pellet was re-suspended in 1 mL of 0.95% (wt/vol %) saline. […] For L. crispatus, the pellet was re-suspended in 1 mL of 0.95% saline to achieve ˜10^7-10^8 cfu/mL. For E. coli, the pellet was re-suspended in 1 mL of 0.95% saline to achieve ˜10^8-10^9 cfu/mL.
Media were prepared as follows.
(§1) All of the ingredients in Table 2 were combined and the pH was adjusted to 6.5. […] To evaluate the effect of various nitrogen containing therapeutic agents on the growth of bacteria, the LAPT-g media, prepared as described above, was supplemented with various nitrogen containing compound therapeutic agents to a final test concentration between 0.1 and 1.0%. As initial screening measures, solubility and initial pH of each composition were checked. If a specific composition was insoluble (as detected by visual indication of precipitates or turbidity), then no further therapeutic efficacy testing was undertaken on that composition. Additionally, if the initial pH of the composition was below 5.5 (“Low”) or was above 6.5 (“High”), then no further therapeutic efficacy testing was undertaken on that composition.
Five milliliters (5 mL) of each medium was transferred to a test tube in duplicates for subsequent inoculation. A master mixture of L. crispatus and E. coli, prepared as described above, was prepared in 1,000:1 ratio. Each (5 ml) test tube was inoculated with the master mixture to give 10^5-10^6 total CFU L. crispatus and 100-1,000 total CFU E. coli per tube.
To establish a negative control, one tube was vortexed and 100 μL was removed to determine the initial cell concentrations by serial dilutions and plating (2 plates per dilution). L. crispatus is selected on MRS agar plates incubated anaerobically at 37° C. for two days. E. coli is selected on TSA plates incubated aerobically at 37° C. for one day. The co-cultures were incubated in an anaerobic container with BD GasPaks at 37° C. for 36 hours.
The effect of the α methyl-D glucoside and the nitrogen containing compound therapeutic agents on the ratio of L. crispatus to E. coli was measured 36 hours after inoculation and a final pH of the test solutions was recorded. The co-culture tube was vortexed and 100 μL was removed to determine the final cell concentrations by serial dilutions and plating (2 plates per dilution). L. crispatus is selected on MRS agar plates incubated anaerobically at 37° C. for two days.

[1] = Initial pH screening of the composition; format: physicochemical; conditions: for I pH (initial pH), 0.10%: nitrogen compound 0.10 wt/vol % with 1.0 wt/vol % α methyl-D glucoside in medium; for I pH (initial pH), 0.50%: nitrogen compound 0.50 wt/vol % with 1.0 wt/vol % α methyl-D glucoside in medium; for I pH (initial pH), 1.00%: nitrogen compound 1.00 wt/vol % with 1.0 wt/vol % α methyl-D glucoside in medium
From the text: Each composition in Table 1 went through initial screening measures of solubility and initial pH (“I pH”). […] When a specific concentration of a nitrogen containing compound was insoluble, the initial and final pH (“F pH”) of the combined composition was not measured and accordingly are each marked as “NM.” Additionally, initial pH of the composition was checked as a screening measure. The initial pH was marked as either Low (“L”), High (“H”), or Pass (“P”). A Low initial pH corresponds to an initial pH being less than 5.5, a High initial pH corresponds to an initial pH being greater than 6.5, and a Pass initial pH corresponds to the pH being at or between 5.5-6.5. […] As part of the Therapeutic Effect Protocol, a final pH was also measured after the compositions that were tested against the Lactobacillus and E. coli.
as §1

CSCC[C@H](NC(=O)CN)C(=O)O [Gly-Met]
Therapeutic Efficacy Results (Lactobacillus/E. coli) 0.10% (L. crispatus and E. coli): 238 | Therapeutic Efficacy Results (Lactobacillus/E. coli) 0.50% (L. crispatus and E. coli): >2343.75 | Therapeutic Efficacy Results (Lactobacillus/E. coli) 1.00% (L. crispatus and E. coli): 0.81 | Therapeutic effect when ratio α methyl-D glucoside : nitrogen compound is at least about 2:1, but not at 1:1 (L. crispatus and E. coli): provided a therapeutic effect | Therapeutic effect at ratio 2:1 and 10:1, but not at 1:1 (L. crispatus and E. coli): provided a therapeutic effect | I pH (initial pH), 0.10% [1]: P (a Pass initial pH corresponds to the pH being at or between 5.5-6.5) | I pH (initial pH), 0.50% [1]: P (a Pass initial pH corresponds to the pH being at or between 5.5-6.5) | I pH (initial pH), 1.00% [1]: P (a Pass initial pH corresponds to the pH being at or between 5.5-6.5)

C[C@H](NC(=O)CN)C(=O)O [Glycyl-Alanine] (H-Gly-Ala-OH)
Therapeutic Efficacy Results (Lactobacillus/E. coli) 0.10% (L. crispatus and E. coli): 0.803 | Therapeutic Efficacy Results (Lactobacillus/E. coli) 0.50% (L. crispatus and E. coli): 220 | Therapeutic Efficacy Results (Lactobacillus/E. coli) 1.00% (L. crispatus and E. coli): 1.49 | Therapeutic effect when ratio α methyl-D glucoside : nitrogen compound is at least about 2:1, but not at 1:1 (L. crispatus and E. coli): provided a therapeutic effect | I pH (initial pH), 0.10% [1]: P (a Pass initial pH corresponds to the pH being at or between 5.5-6.5) | I pH (initial pH), 0.50% [1]: P (a Pass initial pH corresponds to the pH being at or between 5.5-6.5) | I pH (initial pH), 1.00% [1]: P (a Pass initial pH corresponds to the pH being at or between 5.5-6.5)

C[C@H](N)C(=O)N[C@H](C(=O)O)[C@@H](C)O [H-Ala-Thr-OH] (H-Ala-Thr-OH)
Therapeutic Efficacy Results (Lactobacillus/E. coli) 0.10% (L. crispatus and E. coli): 212 | Therapeutic Efficacy Results (Lactobacillus/E. coli) 0.50% (L. crispatus and E. coli): >103 | Therapeutic Efficacy Results (Lactobacillus/E. coli) 1.00% (L. crispatus and E. coli): 1.64 | Therapeutic effect when ratio α methyl-D glucoside : nitrogen compound is at least about 2:1, but not at 1:1 (L. crispatus and E. coli): provided a therapeutic effect | Therapeutic effect at ratio 2:1 and 10:1, but not at 1:1 (L. crispatus and E. coli): provided a therapeutic effect | I pH (initial pH), 0.10% [1]: P (a Pass initial pH corresponds to the pH being at or between 5.5-6.5) | I pH (initial pH), 0.50% [1]: P (a Pass initial pH corresponds to the pH being at or between 5.5-6.5) | I pH (initial pH), 1.00% [1]: P (a Pass initial pH corresponds to the pH being at or between 5.5-6.5)

NO [Hydroxylamine]
Therapeutic Efficacy Results (Lactobacillus/E. coli) 0.10% (L. crispatus and E. coli): 0.20 | I pH (initial pH), 0.10% [1]: H (a High initial pH corresponds to an initial pH being greater than 6.5) | I pH (initial pH), 0.50% [1]: H (a High initial pH corresponds to an initial pH being greater than 6.5) | I pH (initial pH), 1.00% [1]: H (a High initial pH corresponds to an initial pH being greater than 6.5)

OC[C@H]1O[C@@H](n2cnc3c(O)ncnc32)[C@H](O)[C@@H]1O [Inosine]
Therapeutic Efficacy Results (Lactobacillus/E. coli) 0.10% (L. crispatus and E. coli): 2.75E+04 | Therapeutic Efficacy Results (Lactobacillus/E. coli) 0.50% (L. crispatus and E. coli): 226 | Therapeutic Efficacy Results (Lactobacillus/E. coli) 1.00% (L. crispatus and E. coli): 0.45 | Therapeutic effect when ratio α methyl-D glucoside : nitrogen compound is at least about 2:1, but not at 1:1 (L. crispatus and E. coli): provided a therapeutic effect | Therapeutic effect at ratio 2:1 and 10:1, but not at 1:1 (L. crispatus and E. coli): provided a therapeutic effect | I pH (initial pH), 0.10% [1]: P (a Pass initial pH corresponds to the pH being at or between 5.5-6.5) | I pH (initial pH), 0.50% [1]: P (a Pass initial pH corresponds to the pH being at or between 5.5-6.5) | I pH (initial pH), 1.00% [1]: P (a Pass initial pH corresponds to the pH being at or between 5.5-6.5)
